# “And” between values parts separate entries of the source, which are not always exact repeats. Identical values can stand only once.
# Key:
# ABUTH [1] = assay: Preemergence herbicidal evaluation; format: in vivo; parameters: scale not given here
# Description: (§1) The preemergence and postemergence herbicidal properties of certain compounds of the present invention are compared with certain compounds disclosed in U.S. Pat. Nos. 5,484,763 and 5,523,278. The evaluations are performed as described in Examples 185 and 186. Data in Tables V and VI are reported by the compound number given in Example 185 for the compounds of this invention or by comparative compound letter for the compounds disclosed in U.S. Pat. Nos. 5,484,763 and 5,523,278.
# AMBEL [2] = assay: Preemergence herbicidal evaluation; format: in vivo; parameters: scale not given here
# Description: as §1
# CASOB [3] = assay: Preemergence herbicidal evaluation; format: in vivo; parameters: scale not given here
# Description: as §1
# CHEAL [4] = assay: Preemergence herbicidal evaluation; format: in vivo; parameters: scale not given here
# Description: as §1
# ECHCG [5] = assay: Preemergence herbicidal evaluation; format: in vivo; parameters: scale not given here
# Description: as §1
# GALAP [6] = assay: Preemergence herbicidal evaluation; format: in vivo; parameters: scale not given here
# Description: as §1
# GLXMAW [7] = assay: Preemergence herbicidal evaluation; format: in vivo; parameters: scale not given here
# Description: as §1
# IPOSS [8] = assay: Preemergence herbicidal evaluation; format: in vivo; parameters: scale not given here
# Description: as §1
# SETVI [9] = assay: Preemergence herbicidal evaluation; format: in vivo; parameters: scale not given here
# Description: as §1
# TRZAWR [10] = assay: Preemergence herbicidal evaluation; format: in vivo; parameters: scale not given here
# Description: as §1
# ZEAMX [11] = assay: Preemergence herbicidal evaluation; format: in vivo; parameters: scale not given here
# Description: as §1
# GLXMA [12] = assay: Preemergence herbicidal evaluation; format: in vivo
# Description: as §1
# ORYSAT [13] = assay: Preemergence herbicidal evaluation; format: in vivo, Oryza sativa; parameters: scale not given here
# Description: as §1
# ABUTH [14] = assay: Postemergence herbicidal evaluation; format: in vivo
# AMBEL [15] = assay: Postemergence herbicidal evaluation; format: in vivo
# CASOB [16] = assay: Postemergence herbicidal evaluation; format: in vivo
# CHEAL [17] = assay: Postemergence herbicidal evaluation; format: in vivo
# GALAP [18] = assay: Postemergence herbicidal evaluation; format: in vivo
# IPOHE = assay: Postemergence herbicidal evaluation; format: in vivo
# IPOSS [19] = assay: Postemergence herbicidal evaluation; format: in vivo
# ECHCG [20] = assay: Postemergence herbicidal evaluation; format: in vivo
# SETVI [21] = assay: Postemergence herbicidal evaluation; format: in vivo
# GLXMAW [22] = assay: Postemergence herbicidal evaluation; format: in vivo
# GLXMA [23] = assay: Postemergence herbicidal evaluation; format: in vivo
# ORYSAT [24] = assay: Postemergence herbicidal evaluation; format: in vivo, Oryza sativa
# TRZAWR [25] = assay: Postemergence herbicidal evaluation; format: in vivo
# ZEAMX [26] = assay: Postemergence herbicidal evaluation; format: in vivo
compound,measurement,setting,value
O=C1C2=C(CCCC2)C(=O)N1c1ccc2snc(-c3ccccc3)c2c1 [A],herbicidal effect rating,ABUTH [1]; 0.0156-0.0160 kg/ha,0.0
same,herbicidal effect rating,ABUTH [1]; 0.0313-0.0320 kg/ha,0.0
same,herbicidal effect rating,ABUTH [1]; 0.0620-0.0630 kg/ha,0.0
same,herbicidal effect rating,ABUTH [1]; 0.1250 kg/ha,5.0
same,herbicidal effect rating,ABUTH [1]; 0.2500 kg/ha,6.0
same,herbicidal effect rating,ABUTH [1]; 0.5000 kg/ha,7.0
same,herbicidal effect rating,AMBEL [2]; 0.0156-0.0160 kg/ha,0.0
same,herbicidal effect rating,AMBEL [2]; 0.0620-0.0630 kg/ha,2.0
same,herbicidal effect rating,AMBEL [2]; 0.1250 kg/ha,3.5
same,herbicidal effect rating,AMBEL [2]; 0.2500 kg/ha,6.0
same,herbicidal effect rating,AMBEL [2]; 0.5000 kg/ha,5.0
same,herbicidal effect rating,CASOB [3]; 0.0156-0.0160 kg/ha,0.0
same,herbicidal effect rating,CASOB [3]; 0.0313-0.0320 kg/ha,0.0
same,herbicidal effect rating,CASOB [3]; 0.0620-0.0630 kg/ha,0.0
same,herbicidal effect rating,CASOB [3]; 0.1250 kg/ha,1.5
same,herbicidal effect rating,CASOB [3]; 0.2500 kg/ha,2.0
same,herbicidal effect rating,CASOB [3]; 0.5000 kg/ha,2.0
same,herbicidal effect rating,CHEAL [4]; 0.0156-0.0160 kg/ha,2.0
same,herbicidal effect rating,CHEAL [4]; 0.0620-0.0630 kg/ha,2.5
same,herbicidal effect rating,CHEAL [4]; 0.1250 kg/ha,5.0
same,herbicidal effect rating,CHEAL [4]; 0.2500 kg/ha,7.0
same,herbicidal effect rating,CHEAL [4]; 0.5000 kg/ha,9.0
same,herbicidal effect rating,ECHCG [5]; 0.0156-0.0160 kg/ha,0.0
same,herbicidal effect rating,ECHCG [5]; 0.0313-0.0320 kg/ha,0.0
same,herbicidal effect rating,ECHCG [5]; 0.0620-0.0630 kg/ha,0.0
same,herbicidal effect rating,ECHCG [5]; 0.1250 kg/ha,0.0
same,herbicidal effect rating,ECHCG [5]; 0.2500 kg/ha,0.0
same,herbicidal effect rating,ECHCG [5]; 0.5000 kg/ha,0.0
same,herbicidal effect rating,GALAP [6]; 0.0313-0.0320 kg/ha,5.5
same,herbicidal effect rating,GALAP [6]; 0.0620-0.0630 kg/ha,4.5
same,herbicidal effect rating,GALAP [6]; 0.1250 kg/ha,7.0
same,herbicidal effect rating,GALAP [6]; 0.2500 kg/ha,9.0
same,herbicidal effect rating,GALAP [6]; 0.5000 kg/ha,9.0
same,herbicidal effect rating,GLXMAW [7]; 0.0313-0.0320 kg/ha,0.0
same,herbicidal effect rating,GLXMAW [7]; 0.0620-0.0630 kg/ha,0.0
same,herbicidal effect rating,GLXMAW [7]; 0.1250 kg/ha,0.0
same,herbicidal effect rating,GLXMAW [7]; 0.2500 kg/ha,0.0
same,herbicidal effect rating,GLXMAW [7]; 0.5000 kg/ha,0.0
same,herbicidal effect rating,IPOSS [8]; 0.0156-0.0160 kg/ha,0.0
same,herbicidal effect rating,IPOSS [8]; 0.0313-0.0320 kg/ha,0.0
same,herbicidal effect rating,IPOSS [8]; 0.0620-0.0630 kg/ha,0.0
same,herbicidal effect rating,IPOSS [8]; 0.1250 kg/ha,0.0
same,herbicidal effect rating,IPOSS [8]; 0.2500 kg/ha,0.0
same,herbicidal effect rating,IPOSS [8]; 0.5000 kg/ha,2.0
same,herbicidal effect rating,SETVI [9]; 0.0156-0.0160 kg/ha,0.0
same,herbicidal effect rating,SETVI [9]; 0.0313-0.0320 kg/ha,0.0
same,herbicidal effect rating,SETVI [9]; 0.0620-0.0630 kg/ha,0.0
same,herbicidal effect rating,SETVI [9]; 0.1250 kg/ha,2.5
same,herbicidal effect rating,SETVI [9]; 0.2500 kg/ha,2.0
same,herbicidal effect rating,SETVI [9]; 0.5000 kg/ha,3.0
same,herbicidal effect rating,TRZAWR [10]; 0.0156-0.0160 kg/ha,0.0
same,herbicidal effect rating,TRZAWR [10]; 0.0313-0.0320 kg/ha,0.0
same,herbicidal effect rating,TRZAWR [10]; 0.0620-0.0630 kg/ha,0.0
same,herbicidal effect rating,TRZAWR [10]; 0.1250 kg/ha,0.0
same,herbicidal effect rating,ZEAMX [11]; 0.0156-0.0160 kg/ha,0.0
same,herbicidal effect rating,ZEAMX [11]; 0.0313-0.0320 kg/ha,0.0
same,herbicidal effect rating,ZEAMX [11]; 0.0620-0.0630 kg/ha,0.0
same,herbicidal effect rating,ZEAMX [11]; 0.1250 kg/ha,0.0
same,herbicidal effect rating,ZEAMX [11]; 0.2500 kg/ha,0.0
same,herbicidal effect rating,ZEAMX [11]; 0.5000 kg/ha,0.0
same,herbicidal effect rating,GLXMA [12]; 0.0156-0.0160 kg/ha,0.0
same,herbicidal effect rating,GLXMA [12]; 0.0313-0.0320 kg/ha,0.0
same,herbicidal effect rating,ORYSAT [13]; 0.0156-0.0160 kg/ha,0.0
same,herbicidal effect rating,ORYSAT [13]; 0.0620-0.0630 kg/ha,0.5
same,herbicidal effect rating,ORYSAT [13]; 0.1250 kg/ha,0.5
same,herbicidal effect rating,ORYSAT [13]; 0.2500 kg/ha,3.0
same,herbicidal effect rating,ORYSAT [13]; 0.5000 kg/ha,3.0
same,herbicidal effect rating,ABUTH [14]; 0.0313-0.0320 kg/ha,9.0 and 7.8
same,herbicidal effect rating,ABUTH [14]; 0.0625-0.0640 kg/ha,8.6
same,herbicidal effect rating,ABUTH [14]; 0.1250 kg/ha,9.0
same,herbicidal effect rating,ABUTH [14]; 0.2500 kg/ha,9.0
same,herbicidal effect rating,ABUTH [14]; 0.5000 kg/ha,9.0
same,herbicidal effect rating,AMBEL [15]; 0.0157-0.0160 kg/ha,7.0 and 6.0
same,herbicidal effect rating,AMBEL [15]; 0.0313-0.0320 kg/ha,9.0 and 5.6
same,herbicidal effect rating,AMBEL [15]; 0.0625-0.0640 kg/ha,6.9
same,herbicidal effect rating,AMBEL [15]; 0.1250 kg/ha,7.0
same,herbicidal effect rating,AMBEL [15]; 0.2500 kg/ha,9.0
same,herbicidal effect rating,AMBEL [15]; 0.5000 kg/ha,9.0
same,herbicidal effect rating,CASOB [16]; 0.0625-0.0640 kg/ha,7.9
same,herbicidal effect rating,CASOB [16]; 0.1250 kg/ha,8.9
same,herbicidal effect rating,CASOB [16]; 0.2500 kg/ha,9.0
same,herbicidal effect rating,CASOB [16]; 0.5000 kg/ha,9.0
same,herbicidal effect rating,CHEAL [17]; 0.0157-0.0160 kg/ha,9.0 and 5.8
same,herbicidal effect rating,CHEAL [17]; 0.0313-0.0320 kg/ha,9.0 and 6.3
same,herbicidal effect rating,CHEAL [17]; 0.0625-0.0640 kg/ha,7.1
same,herbicidal effect rating,CHEAL [17]; 0.1250 kg/ha,7.9
same,herbicidal effect rating,CHEAL [17]; 0.2500 kg/ha,9.0
same,herbicidal effect rating,CHEAL [17]; 0.5000 kg/ha,9.0
same,herbicidal effect rating,GALAP [18]; 0.0157-0.0160 kg/ha,5.5 and 3.8
same,herbicidal effect rating,GALAP [18]; 0.0625-0.0640 kg/ha,5.4
same,herbicidal effect rating,GALAP [18]; 0.1250 kg/ha,6.4
same,herbicidal effect rating,GALAP [18]; 0.2500 kg/ha,8.3
same,herbicidal effect rating,GALAP [18]; 0.5000 kg/ha,9.0
same,herbicidal effect rating,IPOHE; 0.0157-0.0160 kg/ha,5.0
same,herbicidal effect rating,IPOHE; 0.0313-0.0320 kg/ha,5.7
same,herbicidal effect rating,IPOHE; 0.0625-0.0640 kg/ha,6.0
same,herbicidal effect rating,IPOHE; 0.1250 kg/ha,7.5
same,herbicidal effect rating,IPOSS [19]; 0.0157-0.0160 kg/ha,5.5 and 5.0
same,herbicidal effect rating,IPOSS [19]; 0.0313-0.0320 kg/ha,9.0 and 6.8
same,herbicidal effect rating,IPOSS [19]; 0.0625-0.0640 kg/ha,7.5
same,herbicidal effect rating,IPOSS [19]; 0.1250 kg/ha,8.4
same,herbicidal effect rating,IPOSS [19]; 0.2500 kg/ha,9.0
same,herbicidal effect rating,IPOSS [19]; 0.5000 kg/ha,9.0
same,herbicidal effect rating,ECHCG [20]; 0.0157-0.0160 kg/ha,1.0 and 0.5
same,herbicidal effect rating,ECHCG [20]; 0.0313-0.0320 kg/ha,1.0 and 0.6
same,herbicidal effect rating,ECHCG [20]; 0.0625-0.0640 kg/ha,1.0
same,herbicidal effect rating,ECHCG [20]; 0.1250 kg/ha,1.8
same,herbicidal effect rating,ECHCG [20]; 0.2500 kg/ha,2.7
same,herbicidal effect rating,ECHCG [20]; 0.5000 kg/ha,2.0
same,herbicidal effect rating,SETVI [21]; 0.0157-0.0160 kg/ha,1.0 and 1.2
same,herbicidal effect rating,SETVI [21]; 0.0313-0.0320 kg/ha,1.0 and 1.6
same,herbicidal effect rating,SETVI [21]; 0.0625-0.0640 kg/ha,2.1
same,herbicidal effect rating,SETVI [21]; 0.1250 kg/ha,3.0
same,herbicidal effect rating,SETVI [21]; 0.2500 kg/ha,2.7
same,herbicidal effect rating,SETVI [21]; 0.5000 kg/ha,2.0
same,herbicidal effect rating,GLXMAW [22]; 0.0157-0.0160 kg/ha,4.0
same,herbicidal effect rating,GLXMAW [22]; 0.0313-0.0320 kg/ha,4.0
same,herbicidal effect rating,GLXMAW [22]; 0.0625-0.0640 kg/ha,4.6
same,herbicidal effect rating,GLXMAW [22]; 0.1250 kg/ha,4.6
same,herbicidal effect rating,GLXMAW [22]; 0.2500 kg/ha,4.6
same,herbicidal effect rating,GLXMAW [22]; 0.5000 kg/ha,4.5
same,herbicidal effect rating,GLXMA [23]; 0.0157-0.0160 kg/ha,3.5
same,herbicidal effect rating,GLXMA [23]; 0.0313-0.0320 kg/ha,4.3
same,herbicidal effect rating,ORYSAT [24]; 0.0157-0.0160 kg/ha,2.0
same,herbicidal effect rating,ORYSAT [24]; 0.0313-0.0320 kg/ha,2.3 and 2.1
same,herbicidal effect rating,ORYSAT [24]; 0.0625-0.0640 kg/ha,2.6
same,herbicidal effect rating,ORYSAT [24]; 0.1250 kg/ha,2.9
same,herbicidal effect rating,ORYSAT [24]; 0.2500 kg/ha,3.6
same,herbicidal effect rating,ORYSAT [24]; 0.5000 kg/ha,4.5
same,herbicidal effect rating,TRZAWR [25]; 0.0157-0.0160 kg/ha,2
same,herbicidal effect rating,TRZAWR [25]; 0.0313-0.0320 kg/ha,3.8
same,herbicidal effect rating,TRZAWR [25]; 0.0625-0.0640 kg/ha,4.0
same,herbicidal effect rating,TRZAWR [25]; 0.1250 kg/ha,4.3
same,herbicidal effect rating,ZEAMX [26]; 0.0313-0.0320 kg/ha,4.0 and 3.4
same,herbicidal effect rating,ZEAMX [26]; 0.0625-0.0640 kg/ha,3.7
same,herbicidal effect rating,ZEAMX [26]; 0.1250 kg/ha,4.2
same,herbicidal effect rating,ZEAMX [26]; 0.2500 kg/ha,3.8
same,herbicidal effect rating,ZEAMX [26]; 0.5000 kg/ha,4.0
